Experimental data: patent US20080125480A1, “Oil-In-Water Formulation Of Avermectins” (priority 2004, published 2008)

Legend:
[1] = Stability of Abamectin in water at various pH-values and temperatures (dark, HPLC); assay type: physicochemical
Description: The stability of Abamectin in water at various pH-values and temperatures was determined. 194.4 mg of abamectin was dissolved in 10 ml methanol and 1 ml of the solution transferred to 100 ml of de-mineralised water and a part of this was transferred to a buffer solution. The sample was kept in the dark and the solution analysed using a HPLC.

[2] = Stability of Abamectin in water exposed to light at various pH-values (HPLC); assay type: physicochemical
Description: The stability of Abamectin in water exposed to light at various pH-values was determined. 194.4 mg of abamectin was dissolved in 10 ml methanol and 1 ml of the solution transferred to 100 ml of demineralised water and a part of this transferred to a buffer solution. […]

Substance: Abamectin
- Abamectin concentration ([1]; pH 4.0, 25 °C, 7 days): 3.130 ppm
- Abamectin concentration ([1]; pH 4.0, 25 °C, 14 days): 2.782 ppm
- Abamectin concentration ([1]; pH 4.0, 25 °C, 21 days): 2.566 ppm
- Abamectin concentration ([1]; pH 4.0, 25 °C, 28 days): 2.524 ppm
- Abamectin concentration ([1]; pH 4.0, 25 °C, Initial): 3.495 ppm
- Abamectin concentration ([1]; pH 4.0, 50 °C, 7 days): 1.054 ppm
- Abamectin concentration ([1]; pH 4.0, 50 °C, 14 days): 0.383 ppm
- Abamectin concentration ([1]; pH 4.0, 50 °C, 21 days): 0.123 ppm
- Abamectin concentration ([1]; pH 4.0, 50 °C, 28 days): 0.0609 ppm
- Abamectin concentration ([1]; pH 4.0, 50 °C, Initial): 3.495 ppm
- Abamectin concentration ([1]; pH 7.0, 25 °C, 7 days): 3.188 ppm
- Abamectin concentration ([1]; pH 7.0, 25 °C, 14 days): 3.040 ppm
- Abamectin concentration ([1]; pH 7.0, 25 °C, 21 days): 2.829 ppm
- Abamectin concentration ([1]; pH 7.0, 25 °C, 28 days): 2.676 ppm
- Abamectin concentration ([1]; pH 7.0, 25 °C, Initial): 3.327 ppm
- Abamectin concentration ([1]; pH 7.0, 50 °C, 7 days): 2.952 ppm
- Abamectin concentration ([1]; pH 7.0, 50 °C, 14 days): 2.780 ppm
- Abamectin concentration ([1]; pH 7.0, 50 °C, 21 days): 2.194 ppm
- Abamectin concentration ([1]; pH 7.0, 50 °C, 28 days): 1.949 ppm
- Abamectin concentration ([1]; pH 7.0, 50 °C, Initial): 3.327 ppm
- Abamectin concentration ([1]; pH 9.0, 25 °C, 7 days): 3.005 ppm
- Abamectin concentration ([1]; pH 9.0, 25 °C, 14 days): 2.596 ppm
- Abamectin concentration ([1]; pH 9.0, 25 °C, 21 days): 2.380 ppm
- Abamectin concentration ([1]; pH 9.0, 25 °C, 28 days): 2.287 ppm
- Abamectin concentration ([1]; pH 9.0, 25 °C, Initial): 3.555 ppm
- Abamectin concentration ([1]; pH 9.0, 50 °C, 7 days): 1.265 ppm
- Abamectin concentration ([1]; pH 9.0, 50 °C, 14 days): 0.519 ppm
- Abamectin concentration ([1]; pH 9.0, 50 °C, 21 days): 0.205 ppm
- Abamectin concentration ([1]; pH 9.0, 50 °C, 28 days): 0.0628 ppm
- Abamectin concentration ([1]; pH 9.0, 50 °C, Initial): 3.555 ppm
- Abamectin concentration ([2]; pH 4.0, 25° C., Dark, 7 days): 3.130 ppm
- Abamectin concentration ([2]; pH 4.0, 25° C., Dark, 14 days): 2.782 ppm
- Abamectin concentration ([2]; pH 4.0, 25° C., Dark, 21 days): 2.566 ppm
- Abamectin concentration ([2]; pH 4.0, 25° C., Dark, 28 days): 2.524 ppm
- Abamectin concentration ([2]; pH 4.0, 25° C., Dark, Initial): 3.495 ppm
- Abamectin concentration ([2]; pH 4.0, 25° C., Light (5000-6000 lux), 7 days): 2.923 ppm
- Abamectin concentration ([2]; pH 4.0, 25° C., Light (5000-6000 lux), 14 days): 2.332 ppm
- Abamectin concentration ([2]; pH 4.0, 25° C., Light (5000-6000 lux), 21 days): 1.961 ppm
- Abamectin concentration ([2]; pH 4.0, 25° C., Light (5000-6000 lux), 28 days): 1.666 ppm
- Abamectin concentration ([2]; pH 4.0, 25° C., Light (5000-6000 lux), Initial): 3.495 ppm
- Abamectin concentration ([2]; pH 7.0, 25° C., Dark, 7 days): 3.188 ppm
- Abamectin concentration ([2]; pH 7.0, 25° C., Dark, 14 days): 3.040 ppm
- Abamectin concentration ([2]; pH 7.0, 25° C., Dark, 21 days): 2.829 ppm
- Abamectin concentration ([2]; pH 7.0, 25° C., Dark, 28 days): 2.676 ppm
- Abamectin concentration ([2]; pH 7.0, 25° C., Dark, Initial): 3.327 ppm
- Abamectin concentration ([2]; pH 7.0, 25° C., Light (5000-6000 lux), 7 days): 2.941 ppm
- Abamectin concentration ([2]; pH 7.0, 25° C., Light (5000-6000 lux), 14 days): 2.529 ppm
- Abamectin concentration ([2]; pH 7.0, 25° C., Light (5000-6000 lux), 21 days): 2.223 ppm
- Abamectin concentration ([2]; pH 7.0, 25° C., Light (5000-6000 lux), 28 days): 2.034 ppm
- Abamectin concentration ([2]; pH 7.0, 25° C., Light (5000-6000 lux), Initial): 3.327 ppm
- Abamectin concentration ([2]; pH 9.0, 25° C., Dark, 7 days): 3.005 ppm
- Abamectin concentration ([2]; pH 9.0, 25° C., Dark, 14 days): 2.596 ppm
- Abamectin concentration ([2]; pH 9.0, 25° C., Dark, 21 days): 2.380 ppm
- Abamectin concentration ([2]; pH 9.0, 25° C., Dark, 28 days): 2.287 ppm
- Abamectin concentration ([2]; pH 9.0, 25° C., Dark, Initial): 3.555 ppm
- Abamectin concentration ([2]; pH 9.0, 25° C., Light (5000-6000 lux), 7 days): 3.163 ppm
- Abamectin concentration ([2]; pH 9.0, 25° C., Light (5000-6000 lux), 14 days): 2.810 ppm
- Abamectin concentration ([2]; pH 9.0, 25° C., Light (5000-6000 lux), 21 days): 2.360 ppm
- Abamectin concentration ([2]; pH 9.0, 25° C., Light (5000-6000 lux), 28 days): 2.173 ppm
- Abamectin concentration ([2]; pH 9.0, 25° C., Light (5000-6000 lux), Initial): 3.555 ppm
